Test results published in the supplement of paper PMC10307832.

Key:
Assay in all cases: relative viability (nuclei count vs DMSO), 5 days (fraction); higher = more cells survive
Imatinib + Crizotinib = compound: Cc1ccc(NC(=O)c2ccc(CN3CCN(C)CC3)cc2)cc1Nc1nccc(-c2cccnc2)n1 [Imatinib] + C[C@@H](Oc1cc(-c2cnn(C3CCNCC3)c2)cnc1N)c1c(Cl)ccc(F)c1Cl [Crizotinib] (partner 1 µM)
In short: (§1)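 Dosing by pin tool came one day after lung cancer cell lines were seeded in 1536-well plates, using either one drug or a fixed anchor-drug dose plus five library-drug doses (not always all listed) in √10 steps. After 5 days, nuclei were counted on 4× images. Relative viability is treated-well nuclei count divided by vehicle-well nuclei count, and values are medians of duplicate plates.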

Imatinib + Vorinostat = compound: Cc1ccc(NC(=O)c2ccc(CN3CCN(C)CC3)cc2)cc1Nc1nccc(-c2cccnc2)n1 [Imatinib] + O=C(CCCCCCC(=O)Nc1ccccc1)NO [Vorinostat] (partner 1 µM)
In short: as §1

Imatinib + Luminespib = compound: Cc1ccc(NC(=O)c2ccc(CN3CCN(C)CC3)cc2)cc1Nc1nccc(-c2cccnc2)n1 [Imatinib] + CCNC(=O)c1noc(-c2cc(C(C)C)c(O)cc2O)c1-c1ccc(CN2CCOCC2)cc1 [Luminespib] (partner 0.01 µM)
In short: as §1

Imatinib + Trametinib = compound: Cc1ccc(NC(=O)c2ccc(CN3CCN(C)CC3)cc2)cc1Nc1nccc(-c2cccnc2)n1 [Imatinib] + CC(=O)Nc1cccc(-n2c(=O)n(C3CC3)c(=O)c3c(Nc4ccc(I)cc4F)n(C)c(=O)c(C)c32)c1 [Trametinib] (partner 0.02 µM)
In short: as §1

| Cell Line | relative viability (Imatinib + Crizotinib; first compound 0.02 µM) | relative viability (Imatinib + Crizotinib; first compound 0.06325 µM) | relative viability (Imatinib + Crizotinib; first compound 0.2 µM) | relative viability (Imatinib + Crizotinib; first compound 0.6325 µM) | relative viability (Imatinib + Crizotinib; first compound 2 µM) | relative viability (Imatinib + Vorinostat; first compound 0.06325 µM) | relative viability (Imatinib + Vorinostat; first compound 0.2 µM) | relative viability (Imatinib + Vorinostat; first compound 0.6325 µM) | relative viability (Imatinib + Vorinostat; first compound 2 µM) | relative viability (Imatinib + Luminespib; first compound 0.02 µM) | relative viability (Imatinib + Luminespib; first compound 0.06325 µM) | relative viability (Imatinib + Luminespib; first compound 0.2 µM) | relative viability (Imatinib + Luminespib; first compound 0.6325 µM) | relative viability (Imatinib + Luminespib; first compound 2 µM) | relative viability (Imatinib + Trametinib; first compound 0.02 µM) | relative viability (Imatinib + Trametinib; first compound 0.2 µM) | relative viability (Imatinib + Trametinib; first compound 0.6325 µM) | relative viability (Imatinib + Trametinib; first compound 2 µM) | relative viability (Imatinib + Vorinostat; first compound 0.02 µM) | relative viability (Imatinib + Trametinib; first compound 0.06325 µM) |
| --- | --- | --- | --- | --- | --- | --- | --- | --- | --- | --- | --- | --- | --- | --- | --- | --- | --- | --- | --- | --- |
| IA-LM | 0.991 | 0.744 | 0.999 | 0.781 | 0.735 | 0.357 | 1.14 | 1.16 | 0.923 | – | – | – | – | – | – | – | – | – | – | – |
| LC-2-ad | 0.458 | – | 0.502 | 0.434 | 0.384 | – | 0.754 | 0.707 | 0.693 | 1.23 | 0.744 | 0.935 | 1 | 1.07 | 0.956 | 1.01 | 0.973 | 0.908 | 0.73 | – |
| LCLC-97TM1 | – | – | 0.358 | 0.34 | 0.407 | – | 0.959 | 0.855 | 0.767 | 0.89 | – | 0.864 | 0.889 | 0.813 | 0.235 | 0.183 | 0.207 | 0.172 | 0.798 | – |
| LCLC-103H | 1.16 | – | – | 0.937 | – | 0.584 | 0.814 | 0.766 | 0.779 | 1.03 | 0.8 | 1.04 | 0.892 | 0.863 | 0.752 | 0.742 | 0.655 | 0.658 | 0.768 | 0.673 |
| LK-2 | 0.213 | – | 0.224 | 0.236 | 0.179 | 0.246 | 0.286 | – | 0.159 | 0.168 | 0.174 | 0.168 | 0.196 | 0.199 | 0.783 | 0.919 | – | 0.87 | 0.323 | 0.61 |
| LOU-NH91 | 0.747 | 0.778 | 0.767 | 0.677 | 0.769 | 1.08 | 0.938 | 0.885 | 0.895 | 0.319 | 0.35 | 0.361 | 0.347 | 0.303 | 0.801 | 0.819 | 0.83 | 0.754 | 0.948 | 0.782 |
| LU99A | 0.53 | 0.735 | 0.534 | 0.536 | 0.532 | 0.455 | 0.471 | 0.559 | 0.564 | 0.276 | 0.247 | 0.227 | 0.219 | 0.245 | 0.53 | 0.517 | 0.556 | 0.318 | 0.564 | 0.638 |
| LXF-289 | 0.881 | 0.826 | 0.876 | 0.814 | 0.777 | – | 0.798 | 0.736 | 0.783 | 0.805 | 0.5 | 0.615 | 0.566 | 0.672 | 0.662 | 0.755 | 0.636 | 0.679 | 0.782 | – |
| NCI-H23 | 0.573 | 0.712 | 0.584 | 0.374 | 0.398 | 0.669 | 0.578 | 0.453 | 0.488 | 0.248 | 0.225 | 0.221 | 0.185 | 0.189 | 0.389 | 0.376 | 0.371 | 0.379 | 0.686 | 0.393 |
| NCI-H322M | 0.966 | 1.1 | – | 0.836 | – | 0.873 | 0.928 | 0.775 | 0.876 | 0.987 | 0.868 | 0.826 | 0.873 | 0.826 | 0.45 | 0.546 | 0.535 | 0.507 | 0.889 | 0.48 |
| NCI-H358 | 0.616 | – | 0.571 | 0.555 | 0.616 | 0.83 | 0.642 | 0.692 | 0.729 | 0.317 | 0.608 | 0.501 | 0.308 | 0.418 | 0.14 | 0.129 | 0.139 | 0.121 | 0.863 | 0.143 |
| NCI-H441 | 0.659 | 0.796 | 0.796 | 0.879 | 0.737 | 1.07 | 0.893 | 0.858 | 0.737 | 0.37 | 0.326 | 0.448 | 0.304 | 0.309 | 0.537 | 0.572 | 0.517 | 0.37 | 0.96 | 0.459 |
| NCI-H1355 | 1.13 | – | 1.21 | 1.03 | 1.15 | – | 0.688 | 0.579 | 0.609 | – | – | – | – | – | 0.494 | 0.436 | – | 0.411 | 0.733 | – |
| NCI-H1395 | – | – | – | – | – | – | 0.67 | 0.698 | 0.594 | 0.79 | 0.697 | 0.653 | 0.737 | 0.676 | 1.07 | 1.13 | 0.999 | 0.997 | 0.687 | – |
| NCI-H1563 | 0.823 | 0.884 | 0.863 | 0.884 | 0.825 | – | – | – | – | 0.486 | 0.537 | 0.545 | 0.496 | 0.471 | – | – | – | – | – | – |
| NCI-H1648 | – | – | – | – | – | 0.272 | 0.422 | 0.268 | 0.476 | – | – | – | – | – | 0.422 | 0.459 | 0.301 | 0.478 | 0.503 | 0.364 |
| NCI-H1703 | 0.773 | 0.88 | 0.437 | 0.304 | 0.186 | – | – | – | – | – | – | – | – | – | – | – | – | – | – | – |
| NCI-H1792 | 1.4 | – | 0.931 | 0.92 | 0.946 | – | – | – | – | 0.519 | 0.321 | 0.432 | 0.447 | 0.365 | 0.534 | 0.521 | – | 0.427 | – | 0.311 |
| NCI-H1793 | – | – | – | – | – | – | 0.94 | 0.716 | 0.565 | 0.253 | – | 0.164 | 0.167 | 0.189 | 0.472 | 0.582 | 0.404 | 0.368 | 0.703 | – |
| NCI-H2342 | – | – | – | – | – | 0.789 | 0.772 | 0.865 | 0.745 | 0.787 | 0.757 | 0.728 | 0.649 | 0.715 | 0.847 | 0.869 | 0.828 | 0.853 | 0.766 | 0.814 |
| SW 900 | – | – | – | – | – | 0.564 | 0.538 | 0.654 | 0.409 | 0.201 | 0.146 | 0.168 | 0.175 | 0.161 | 0.776 | 0.641 | 0.756 | 0.76 | 0.615 | 0.625 |
